Assay results taken from PubChem BioAssay AID2060500 (Molecular Pharmacology Branch, DTP, NCI, 2025).

Tested on: 596521-263-R-J1-PDC complex spheroids, viability % of control
Assay: Anticancer human tumor 596521-263-R-J1-PDC patient-derived soft tissue sarcoma cell line growth inhibition [GQUAD]
Conditions: for IC50: curve of first compound; for viability, T/C: stronger effect = lower value
Procedure, shortened: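 Multi-cell-type spheroids of tumor cells with HUVEC and mesenchymal stem cells, treated with drug combinations. Concentrations descend in half-log steps from near clinical Cmax, or from 10 microM where Cmax is unknown; viability read-out.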

[1] = second compound 0.0316 µM, first compound 0.0316 µM
[2] = second compound 0.0316 µM, first compound 0.1 µM
[3] = second compound 0.0316 µM, first compound 0.316 µM
[4] = second compound 0.0316 µM, first compound 1 µM
[5] = second compound 0.0316 µM, first compound 3.16 µM
[6] = second compound 0.0316 µM, first compound 10 µM
[7] = second compound 0.1 µM, first compound 0.0316 µM
[8] = second compound 0.1 µM, first compound 0.1 µM
[9] = second compound 0.1 µM, first compound 0.316 µM
[10] = second compound 0.1 µM, first compound 1 µM
[11] = second compound 0.1 µM, first compound 3.16 µM
[12] = second compound 0.1 µM, first compound 10 µM
[13] = second compound 0.316 µM, first compound 0.0316 µM
[14] = second compound 0.316 µM, first compound 0.1 µM
[15] = second compound 0.316 µM, first compound 0.316 µM
[16] = second compound 0.316 µM, first compound 1 µM
[17] = second compound 0.316 µM, first compound 3.16 µM
[18] = second compound 0.316 µM, first compound 10 µM
[19] = second compound 1 µM, first compound 0.0316 µM
[20] = second compound 1 µM, first compound 0.1 µM
[21] = second compound 1 µM, first compound 0.316 µM
[22] = second compound 1 µM, first compound 1 µM
[23] = second compound 1 µM, first compound 3.16 µM
[24] = second compound 1 µM, first compound 10 µM
[25] = second compound 3.16 µM, first compound 0.0316 µM
[26] = second compound 3.16 µM, first compound 0.1 µM
[27] = second compound 3.16 µM, first compound 0.316 µM
[28] = second compound 3.16 µM, first compound 1 µM
[29] = second compound 3.16 µM, first compound 3.16 µM
[30] = second compound 3.16 µM, first compound 10 µM
[31] = second compound 10 µM, first compound 0.0316 µM
[32] = second compound 10 µM, first compound 0.1 µM
[33] = second compound 10 µM, first compound 0.316 µM
[34] = second compound 10 µM, first compound 1 µM
[35] = second compound 10 µM, first compound 3.16 µM
[36] = second compound 10 µM, first compound 10 µM
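Also: spheroids exposed to drugs for 7 days before viability reading.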
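For viability, T/C in this document: 100% = DMSO vehicle control viability.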

SMILES: C#Cc1c(F)ccc2cc(O)cc(-c3ncc4c(N5CC6CCC(C5)N6)nc(OCC56CCCN5CC(F)C6)nc4c3F)c12 (stereo unspecified) + Cc1[nH]c2ccc(F)cc2c1-c1nc2c3cccnc3c3ncccc3c2[nH]1
- IC50 (second compound 0.0316 µM): 1280 nM
- IC50 (second compound 0.1 µM): 1390 nM
- IC50 (second compound 0.316 µM): 1380 nM
- IC50 (second compound 1 µM): 1350 nM
- IC50 (second compound 3.16 µM): 1710 nM
- IC50 (second compound 10 µM): 1490 nM
- viability, T/C [1]: 111%
- viability, T/C [2]: 94.7%
- viability, T/C [3]: 89.1%
- viability, T/C [4]: 60.9%
- viability, T/C [5]: 17.9%
- viability, T/C [6]: 18.9%
- viability, T/C [7]: 104%
- viability, T/C [8]: 93.3%
- viability, T/C [9]: 97.4%
- viability, T/C [10]: 62.1%
- viability, T/C [11]: 17.5%
- viability, T/C [12]: 22.7%
- viability, T/C [13]: 113%
- viability, T/C [14]: 95.6%
- viability, T/C [15]: 97.3%
- viability, T/C [16]: 62.5%
- viability, T/C [17]: 16.1%
- viability, T/C [18]: 21.2%
- viability, T/C [19]: 88%
- viability, T/C [20]: 87.7%
- viability, T/C [21]: 92.9%
- viability, T/C [22]: 59.9%
- viability, T/C [23]: 21.1%
- viability, T/C [24]: 22.5%
- viability, T/C [25]: 83.8%
- viability, T/C [26]: 95.1%
- viability, T/C [27]: 80.7%
- viability, T/C [28]: 65.9%
- viability, T/C [29]: 31.6%
- viability, T/C [30]: 29%
- viability, T/C [31]: 78.3%
- viability, T/C [32]: 78%
- viability, T/C [33]: 81%
- viability, T/C [34]: 60.8%
- viability, T/C [35]: 29.1%
- viability, T/C [36]: 30%

SMILES: O=c1[nH]cc(F)c(=O)[nH]1 + Cc1cnc(CNC(=O)c2c(=O)c3ccc(N4CCCN(C)CC4)nc3n3c2sc2ccccc23)cn1
- IC50 (second compound 0.0316 µM): > 10000 nM
- IC50 (second compound 0.1 µM): > 10000 nM
- IC50 (second compound 0.316 µM): > 10000 nM
- IC50 (second compound 1 µM): > 10000 nM
- IC50 (second compound 3.16 µM): > 10000 nM
- IC50 (second compound 10 µM): < 31.6 nM
- viability, T/C [1]: 109%
- viability, T/C [2]: 112%
- viability, T/C [3]: 100%
- viability, T/C [4]: 99.7%
- viability, T/C [5]: 111%
- viability, T/C [6]: 84.7%
- viability, T/C [7]: 100%
- viability, T/C [8]: 84.9%
- viability, T/C [9]: 89.4%
- viability, T/C [10]: 88.5%
- viability, T/C [11]: 104%
- viability, T/C [12]: 87.4%
- viability, T/C [13]: 78.9%
- viability, T/C [14]: 82.8%
- viability, T/C [15]: 69.5%
- viability, T/C [16]: 72.5%
- viability, T/C [17]: 82.7%
- viability, T/C [18]: 76.7%
- viability, T/C [19]: 68.2%
- viability, T/C [20]: 66%
- viability, T/C [21]: 71.3%
- viability, T/C [22]: 72.2%
- viability, T/C [23]: 76%
- viability, T/C [24]: 69.9%
- viability, T/C [25]: 54.8%
- viability, T/C [26]: 59.9%
- viability, T/C [27]: 51.3%
- viability, T/C [28]: 49.8%
- viability, T/C [29]: 63.2%
- viability, T/C [30]: 51.4%
- viability, T/C [31]: 49%
- viability, T/C [32]: 49.6%
- viability, T/C [33]: 49.2%
- viability, T/C [34]: 49.4%
- viability, T/C [35]: 54.7%
- viability, T/C [36]: 47.6%

SMILES: COc1cc(C2c3cc4c(cc3C(OC3OC5COC(C)OC5C(O)C3O)C3COC(=O)C23)OCO4)cc(OC)c1O (stereo unspecified) + CN(C)c1ccc(Nc2c3ccc(NC(=O)CCN4CCCC4)cc3nc3cc(NC(=O)CCN4CCCC4)ccc23)cc1
- IC50 (second compound 0.0316 µM): 3590 nM
- IC50 (second compound 0.1 µM): 8190 nM
- IC50 (second compound 0.316 µM): > 10000 nM
- IC50 (second compound 1 µM): 2750 nM
- IC50 (second compound 3.16 µM): 3120 nM
- IC50 (second compound 10 µM): 4290 nM
- viability, T/C [1]: 101%
- viability, T/C [2]: 96.2%
- viability, T/C [3]: 84.5%
- viability, T/C [4]: 59.8%
- viability, T/C [5]: 56.8%
- viability, T/C [6]: 40.3%
- viability, T/C [7]: 111%
- viability, T/C [8]: 96.6%
- viability, T/C [9]: 85%
- viability, T/C [10]: 70.6%
- viability, T/C [11]: 57.8%
- viability, T/C [12]: 48.5%
- viability, T/C [13]: 96.4%
- viability, T/C [14]: 107%
- viability, T/C [15]: 82.7%
- viability, T/C [16]: 67.2%
- viability, T/C [17]: 56.8%
- viability, T/C [18]: 47.8%
- viability, T/C [19]: 95.9%
- viability, T/C [20]: 92.8%
- viability, T/C [21]: 94.6%
- viability, T/C [22]: 72.3%
- viability, T/C [23]: 47%
- viability, T/C [24]: 46.6%
- viability, T/C [25]: 95.9%
- viability, T/C [26]: 94.9%
- viability, T/C [27]: 85%
- viability, T/C [28]: 63.9%
- viability, T/C [29]: 49.7%
- viability, T/C [30]: 46.6%
- viability, T/C [31]: 68%
- viability, T/C [32]: 63.6%
- viability, T/C [33]: 67.1%
- viability, T/C [34]: 55.5%
- viability, T/C [35]: 54%
- viability, T/C [36]: 42.9%
